Test results taken from patent US20160243271A1, “Essential Oils Or Volatile Organics Thereof Electrospun In Chitosan Nanofiber Mats” (UNIVERSITY OF MASSACHUSETTS, priority 2013, published 2016).
≈ marks a conversion by molar mass, not a printed value.

Key:
P. aeruginosa S20930 = experiment: Viability loss of P. aeruginosa, PI/DAPI fluorescence assay; format: cell-based, Pseudomonas aeruginosa
Procedure: (§1) The model organisms were Escherichia coli S20918 (E. coli) and P. aeruginosa S20930 (P. aeruginosa), purchased from Thermo Fisher Scientific, Waltham, Mass. The bacteria were grown in LB at 37.0 and harvested at a concentration of 10^8 cells/mL. To remove residual macromolecules and other growth medium constituents, cells were washed twice and then resuspended in an isotonic solution (0.9% NaCl, pH 5.7). This isotonic solution was used for E. coli and P. aeruginosa loss of viability studies.
Viability loss of P. aeruginosa in contact with chitosan/CA(0, 0.5, and 5.0%)/PEO nanofiber mats was determined using a previously described fluorescence assay.^33 Electrospun mats (20 mm×10 mm) were placed at the bottom of 35 mm×10 mm petri dishes (Becton, Dickinson & Co., Franklin Lakes, N.J.) to which the cells (10^7 cells/mL) resuspended in an isotonic solution were added and diluted by a factor of 2. The cells were incubated at 37° C. for various times (30, 90, and 180 min). […] Fluorescence images were acquired to detect the cells utilizing an epifluorescence microscope (Olympus) with a Chroma cube filter. […] Dead cells and the total number of cells were determined by direct cell counting. […] Throughout the Results and Discussion section, all statistical differences were determined using an unpaired t-test with values of p≦0.05 considered to be statistically significant.

Escherichia coli S20918 = experiment: Viability loss of E. coli, modified ASTM E2149-01 shake flask method; format: cell-based; settings: 3 mM CA solution
Procedure: as §1
The viability loss of E. coli in contact with chitosan/CA(0, 0.5, and 5.0%)/PEO nanofiber mats was assayed according to a modified ASTM E2149-01 shake flask method.^30 In parallel to each experiment (i) a blank control (no nanofiber mat) and (ii) an MIC control of CA for E. coli (3 mM CA in solution) were employed.^19 Electrospun mats (10 mm×20 mm) were placed into culture tubes (16 mm×125 mm) along with 4 mL suspensions of E. coli or P. aeruginosa (5×10^6 cells/mL) in an isotonic solution (0.9% NaCl, pH 5.7). The suspensions were shaken at 200 rpm in an orbital shaker maintained at 37° C. At 30, 90, and 180 minutes, 100 μL were pipetted out from the tubes and serial dilutions were plated onto LB plates using the spread plate method.^30-32 After 24 hr incubation on agar plates, the number of viable bacteria was counted. The number of viable cells was multiplied by the dilution factor and expressed as the mean colony forming unit (CFU) per mL. The percent reduction of bacteria resulting from contact with the nanofiber mats was determined using Equation 1 where A represents the mean log10 density of bacteria for the flask containing the treated substrate after the specified contact time and B represents the untreated substrate after the specified contact time.

E. coli = settings: CA in solution; cited from earlier work

What does the source list for `O=CC=Cc1ccccc1` [CA, cinnamaldehyde]?
P. aeruginosa inactivation, statistical comparison (P. aeruginosa S20930; after 30 min): statistically equivalent; P. aeruginosa inactivation, statistical comparison (P. aeruginosa S20930; at 90 min): statistically equivalent level as the chitosan/CA(0.5 and 5.0%)/PEO nanofiber mats; E. coli inactivation compared with blank control (Escherichia coli S20918; no nanofiber mat): statistically inactivated more E. coli than the blank control; antibacterial activity against E. coli compared with nanofiber mats (Escherichia coli S20918; after 30 and 180 min): statistically lower level of antibacterial activity; antibacterial activity against E. coli compared with nanofiber mats (Escherichia coli S20918; at 90 min): statistically equivalent to the chitosan/CA(0.5%)/PEO nanofiber mats; MIC (E. coli): 3000 µM (≈ 396 µg/mL)
